Measurements as given in US20090042240A1, “RAPID DETECTION OF ANTIMICROBIAL DRUG RESIDUES” (priority 2006, published 2009).

Legend:
[1] = test system: Escherichia coli; details: additional study 1997; microorganism frozen in skimmed milk, cells washed with saline; cited from earlier work
[2] = cited from earlier work; for Lowest official MRL: official Maximum Residue Limit, unit assumed; for MRL: MRL stated by the European Community
[3] = test system: Escherichia coli strains; details: Choi et al. 1999, animal tissues; cited from earlier work
[4] = test system: Escherichia coli ATCC 11303; details: milk; Escherichia coli ATCC 11303 frozen in 10% glycerol; cited from earlier work
[5] = test system: Escherichia coli strain ATCC 11303; assay: Detection of quinolones in chicken muscle by solvent extraction, then liquid test (Example 7); type: cell-based; details: acetonitrile/acetone extraction
Method: Escherichia coli strain ATCC 11303 was grown using well-known methods. The test medium was prepared by adding Escherichia coli cells to the quinolone medium to a final concentration of approximately 10^5 cells/ml. The test was prepared by addition of 250 μl of medium containing the test organism in each test ampoule. Spiked samples were prepared by adding different concentrations of the quinolones described in Table 1 to demineralized water. 100 μl of the spiked sample was added to the test ampoule, a negative control (water without quinolones) was included. The tests were incubated at 37° C. for 4 hours and 45 minutes. The tests were read at the time the test incubated with the negative control sample (water without quinolones) changed color from purple to yellow. In this experiment a mixture of acetonitrile/acetone is used to extract antimicrobial compounds out of the sample, further the experiment is executed as described in Example 2. The sample is obtained as follows: • 1. Weigh out 4 g (±0.03) of sample into a 50 ml plastic disposable centrifuge tube; • 2. Add 10 ml acetonitrile/acetone 70:30 (v/v); • 3. […] Homogenize for 30-40 seconds using an Ultra Turrax; • 5. Place in an ultrasonic bath for 5-10 minutes, then vortex mix for 30-40 seconds; • 6. Centrifuge for 10-12 minutes at 4200 G at 4° C.; • 7. […]

[6] = test system: Escherichia coli strain ATCC 11303; assay: Liquid based microbial screening test for quinolones (Example 2); type: cell-based; details: spiked demineralized water, 100 μl sample, 37° C., 4 hours and 45 minutes, colour change purple to yellow
Method: In this experiment a liquid based microbial screenings test for the detection of quinolones is described. The quinolone medium used in this experiment is prepared by dissolving the following compounds in 1 liter of demineralized water: • 8.5 gram of Plate Count Broth (PCB) (Difco, cat. no: 275120); • 20 gram of NaCl (Merck, cat. no: 106404); • 0.042 gram of Bromocresol purple (Merck, cat. no: 103025). Escherichia coli strain ATCC 11303 was grown using well-known methods. The test medium was prepared by adding Escherichia coli cells to the quinolone medium to a final concentration of approximately 10^5 cells/ml. The test was prepared by addition of 250 μl of medium containing the test organism in each test ampoule. Spiked samples were prepared by adding different concentrations of the quinolones described in Table 1 to demineralized water. 100 μl of the spiked sample was added to the test ampoule, a negative control (water without quinolones) was included. The tests were incubated at 37° C. for 4 hours and 45 minutes. The tests were read at the time the test incubated with the negative control sample (water without quinolones) changed color from purple to yellow.

[7] = agar diffusion, Tsai and Kondo 2001; cited from earlier work

Row | Compound | sensitivity [1] | Lowest official MRL [2] | detection limit [3] | sensitivity [4] | concentration detected [5] | Detection level [6] | sensitivity [7] | MRL [2]
1 | CN1C[C@@H]2C[C@H]1CN2c1cc2c(cc1F)c(=O)c(C(=O)O)cn2C1CC1 [Danofloxacin] | 8 ppb | 30 µg/kg | – | – | – | – | – | –
2 | CCN1CCN(c2cc3c(cc2F)c(=O)c(C(=O)O)cn3C2CC2)CC1 [Enrofloxacin] | 6 ppb | – | 50 ppb | 2 ppb | – | – | – | –
3 | CC1CCc2cc(F)cc3c(=O)c(C(=O)O)cn1c23 (centres unmarked) [Flumequin] | – | 400 µg/kg | – | – | 10 µg/kg | 100 | – | –
4 | CCn1cc(C(=O)O)c(=O)c2cc3c(cc21)OCO3 [Oxolinic acid] | – | 100 µg/kg | – | – | 10 µg/kg | – | 200 ppb | –
5 | O=C(O)c1cn(-c2ccc(F)cc2)c2cc(N3CCNCC3)c(F)cc2c1=O [Sarafloxacin] | 15 ppb | 10 µg/kg | 250 ppb | – | – | – | – | 100 ppb
6 | CN1CCN(c2cc3c(cc2F)c(=O)c(C(=O)O)cn3-c2ccc(F)cc2)CC1 [difloxacin] | – | – | 250 ppb | – | – | – | – | 10 ppb
